From ChEMBL document CHEMBL1201862, “PubChem BioAssay data set” (2004)
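Cells were grown in 96-well plates and exposed to each compound for 48 hours at five concentrations; endpoints were interpolated linearly between bracketing concentrations, or set to the highest concentration if not reached. At the GI50, growth is halved.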 The source made the active and inactive calls. Rule as the data show it: active = GI50 up to about 1.1 µM and inactive = higher.

Legend:
Test in all cases: NCI-60 cell line screen, 48 h
U-251 = tested on: U-251
MDA-MB-231 = tested on: MDA-MB-231
RPMI-8226 = tested on: RPMI-8226
SK-MEL-2 = tested on: SK-MEL-2
HOP-92 = tested on: HOP-92
SF-295 = tested on: SF-295
TK-10 = tested on: TK-10
M14 = tested on: M14
OVCAR-3 = tested on: OVCAR-3
HOP-62 = tested on: HOP-62
NCI-H460 = tested on: NCI-H460
MDA-MB-435 = tested on: MDA-MB-435
Hs-578T = tested on: Hs-578T
NCI-H23 = tested on: NCI-H23
SR = tested on: SR
A549 = tested on: A549
OVCAR-8 = tested on: OVCAR-8
SNB-19 = tested on: SNB-19
SF-539 = tested on: SF-539
IGROV-1 = tested on: IGROV-1

Measured: GI50

CSC1(SC)N2Cc3ccccc3N=C2C1(c1ccccc1)c1ccccc1
inactive: U-251 15.1 µM | MDA-MB-231 26.7 µM | RPMI-8226 5.38 µM | SK-MEL-2 12.7 µM | HOP-92 4.12 µM | SF-295 11.1 µM | TK-10 > 35.1 µM | M14 12.2 µM | OVCAR-3 6.4 µM | HOP-62 > 44.9 µM | NCI-H460 7.48 µM | MDA-MB-435 4.01 µM | Hs-578T 29 µM | NCI-H23 16 µM | SR 1.95 µM | A549 13.8 µM | OVCAR-8 29.2 µM | SNB-19 > 48.3 µM | SF-539 12.8 µM | IGROV-1 24.2 µM

O=C1O[C@H]2C3C4CCC(C4[C@@H]2I)[C@H]13 (some centres not stated)
inactive: U-251 > 100 µM | MDA-MB-231 > 100 µM | RPMI-8226 > 100 µM | SK-MEL-2 > 100 µM | HOP-92 > 100 µM | SF-295 > 100 µM | TK-10 > 100 µM | M14 > 100 µM | OVCAR-3 > 100 µM | HOP-62 > 100 µM | NCI-H460 > 100 µM | MDA-MB-435 > 100 µM | Hs-578T > 100 µM | NCI-H23 > 100 µM | SR > 100 µM | A549 > 100 µM | OVCAR-8 > 100 µM | SNB-19 > 100 µM | SF-539 > 100 µM | IGROV-1 > 100 µM

Cc1cc2ccccc2c[n+]1CC(O)C[n+]1cc2ccccc2cc1C
inactive: U-251 > 100 µM | MDA-MB-231 > 100 µM | RPMI-8226 > 100 µM | SK-MEL-2 > 100 µM | HOP-92 > 100 µM | SF-295 20.1 µM | TK-10 > 100 µM | M14 > 100 µM | OVCAR-3 51.6 µM | HOP-62 82.6 µM | NCI-H460 > 100 µM | MDA-MB-435 > 100 µM | Hs-578T > 100 µM | NCI-H23 > 100 µM | SR > 100 µM | A549 > 100 µM | OVCAR-8 > 100 µM | SNB-19 > 100 µM | SF-539 > 100 µM | IGROV-1 > 100 µM

COc1cc(OC)c(OC)cc1/C=N/N=C(\N)NO
inactive: U-251 > 100 µM | MDA-MB-231 > 100 µM | RPMI-8226 68.9 µM | SK-MEL-2 99.8 µM | HOP-92 77.6 µM | SF-295 51.1 µM | TK-10 > 100 µM | M14 > 100 µM | OVCAR-3 > 100 µM | HOP-62 > 100 µM | NCI-H460 > 100 µM | MDA-MB-435 68.2 µM | Hs-578T > 100 µM | NCI-H23 > 100 µM | SR > 100 µM | A549 > 100 µM | OVCAR-8 > 100 µM | SNB-19 > 100 µM | SF-539 > 100 µM | IGROV-1 > 100 µM

CCSC1=N/C(=C\c2ccco2)C(Cl)=N1
inactive: U-251 > 100 µM | MDA-MB-231 > 100 µM | RPMI-8226 > 100 µM | SK-MEL-2 > 100 µM | HOP-92 > 100 µM | SF-295 > 100 µM | TK-10 > 100 µM | M14 > 100 µM | OVCAR-3 > 100 µM | HOP-62 > 100 µM | NCI-H460 > 100 µM | MDA-MB-435 > 100 µM | Hs-578T > 100 µM | NCI-H23 > 100 µM | SR > 100 µM | A549 > 100 µM | OVCAR-8 > 100 µM | SNB-19 > 100 µM | SF-539 > 100 µM | IGROV-1 > 100 µM

COc1ccc(CCc2ccc(O)c(C(=O)O)c2)cc1OC
inactive: U-251 > 100 µM | MDA-MB-231 57.8 µM | RPMI-8226 > 100 µM | SK-MEL-2 > 100 µM | HOP-92 > 100 µM | SF-295 > 100 µM | TK-10 > 100 µM | M14 > 100 µM | OVCAR-3 > 100 µM | HOP-62 > 100 µM | NCI-H460 > 100 µM | MDA-MB-435 > 100 µM | Hs-578T > 100 µM | NCI-H23 > 100 µM | SR > 100 µM | A549 > 100 µM | OVCAR-8 > 100 µM | SNB-19 > 100 µM | SF-539 37.2 µM | IGROV-1 > 100 µM

COc1cc2c(cc1OCc1ccccc1)NC(=O)[C@@H]1CCCN1C2=O
inactive: U-251 > 100 µM | MDA-MB-231 > 100 µM | RPMI-8226 > 100 µM | SK-MEL-2 > 100 µM | HOP-92 > 100 µM | SF-295 > 100 µM | TK-10 > 100 µM | M14 > 100 µM | OVCAR-3 > 100 µM | HOP-62 > 100 µM | NCI-H460 > 100 µM | MDA-MB-435 > 100 µM | Hs-578T > 100 µM | NCI-H23 > 100 µM | SR > 100 µM | A549 > 100 µM | OVCAR-8 > 100 µM | SNB-19 > 100 µM | SF-539 > 100 µM | IGROV-1 58.9 µM

CN(N=O)N1C(=O)SCC(c2ccccc2)(c2ccccc2)C1=O
inactive: U-251 28.4 µM | MDA-MB-231 37.3 µM | RPMI-8226 25.8 µM | SK-MEL-2 18.9 µM | HOP-92 38.9 µM | SF-295 35.6 µM | TK-10 50.2 µM | M14 37.5 µM | OVCAR-3 37.6 µM | HOP-62 65.9 µM | NCI-H460 9.62 µM | MDA-MB-435 24.3 µM | Hs-578T 56.8 µM | NCI-H23 > 100 µM | SR 37.5 µM | A549 7.98 µM | OVCAR-8 16.2 µM | SNB-19 57.9 µM | SF-539 21.9 µM

COCC1OC(N2C(=O)NC(=O)[C@@H]3C=C4CCCCC4=C[C@@H]32)C(OC)C1OC (some centres not stated)
inactive: U-251 > 100 µM | MDA-MB-231 > 100 µM | RPMI-8226 > 100 µM | SK-MEL-2 > 100 µM | HOP-92 75 µM | SF-295 > 100 µM | TK-10 > 100 µM | M14 > 100 µM | OVCAR-3 > 100 µM | HOP-62 > 100 µM | NCI-H460 > 100 µM | MDA-MB-435 > 100 µM | Hs-578T 68.9 µM | SR 19.1 µM | A549 > 100 µM | OVCAR-8 > 100 µM | SNB-19 > 100 µM | SF-539 > 100 µM | IGROV-1 > 100 µM

CC(C)(C)c1cc(C(=O)Nc2cc(Br)c(Br)cc2S(N)(=O)=O)cc(C(C)(C)C)c1O
inactive: U-251 12.5 µM | MDA-MB-231 9.51 µM | RPMI-8226 8.32 µM | SK-MEL-2 10 µM | HOP-92 6.52 µM | SF-295 14.2 µM | TK-10 12.9 µM | M14 15.2 µM | OVCAR-3 7.91 µM | HOP-62 20.9 µM | MDA-MB-435 12.3 µM | Hs-578T 11.9 µM | NCI-H23 20 µM | SR 6 µM | A549 9.12 µM | OVCAR-8 13.3 µM | SNB-19 13.3 µM | SF-539 15.8 µM | IGROV-1 12.6 µM
